Measured values reported in ChEMBL document CHEMBL1201862, “PubChem BioAssay data set” (2004).
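96-well plates; 48 h exposure; 5 concentrations. Endpoints by linear interpolation between flanking doses. Not reached: highest tested concentration assigned. GI50 is the concentration that inhibits growth by half.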 Activity calls are given as the source filed them. No stated cut-off is given here; in the data, active = GI50 up to about 1.1 µM and inactive = higher.

Assays:
Experiment in all cases: inhibition of tumour cell growth, NCI panel, 48 h
EKVX = system: EKVX
HCT-116 = system: HCT-116
HCT-15 = system: HCT-15
HL-60 = system: HL-60
K562 = system: K562
LOX IMVI = system: LOX IMVI
M14 = system: M14
NCI-H460 = system: NCI-H460
NCI-H522 = system: NCI-H522
RPMI-8226 = system: RPMI-8226
SK-MEL-28 = system: SK-MEL-28
SK-OV-3 = system: SK-OV-3
SN12C = system: SN12C
SW-620 = system: SW-620
HCC 2998 = system: HCC 2998

Row | SMILES | GI50 (EKVX) | GI50 (HCT-116) | GI50 (HCT-15) | GI50 (HL-60) | GI50 (K562) | GI50 (LOX IMVI) | GI50 (M14) | GI50 (NCI-H460) | GI50 (NCI-H522) | GI50 (RPMI-8226) | GI50 (SK-MEL-28) | GI50 (SK-OV-3) | GI50 (SN12C) | GI50 (SW-620) | GI50 (HCC 2998)
1 | NC(CNc1ccc(O)cc1)C(=O)O (stereo not given) | > 100 µM (inactive) | > 100 µM (inactive) | > 100 µM | 31.5 µM (inactive) | 89.1 µM (inactive) | 60.8 µM (inactive) | 80.7 µM (inactive) | > 100 µM (inactive) | > 100 µM (inactive) | > 100 µM (inactive) | > 100 µM (inactive) | > 100 µM (inactive) | > 100 µM (inactive) | > 100 µM (inactive) | 
2 | COC(=O)Cc1nc2ccccc2o1 | > 100 µM (inactive) | 91.2 µM (inactive) | 33.3 µM | 12.5 µM (inactive) | 32.4 µM (inactive) |  | 51.6 µM (inactive) | 80.5 µM (inactive) | 40.1 µM (inactive) | 17.8 µM (inactive) | > 100 µM (inactive) | > 100 µM (inactive) | > 100 µM (inactive) | 95.1 µM (inactive) | 88.5 µM (inactive)
3 | N=C(N)NS(=O)(=O)c1ccc(NC(=O)c2cccc3c(Nc4ccc(S(N)(=O)=O)cc4)c4ccccc4nc23)cc1 | > 100 µM (inactive) |  | > 100 µM |  | > 100 µM (inactive) | > 100 µM (inactive) | > 100 µM (inactive) | > 100 µM (inactive) | > 100 µM (inactive) | > 100 µM (inactive) | > 100 µM (inactive) | > 100 µM (inactive) | > 100 µM (inactive) | > 100 µM (inactive) | > 100 µM (inactive)
4 | CCc1nc2c([nH]1)C(=O)c1ccccc1C2=O | 94.4 µM (inactive) | 27.2 µM (inactive) | 51.3 µM | 25.6 µM (inactive) | 55 µM (inactive) |  | 46.9 µM (inactive) | 43 µM (inactive) | 33.5 µM (inactive) |  | > 100 µM (inactive) | > 100 µM (inactive) | 37.2 µM (inactive) | 43.4 µM (inactive) | 31.8 µM (inactive)
5 | CCCCCCCC(=O)OCC(C[As](=O)(O)O)OC(=O)CCCCCCC (stereo not given) | 18.3 µM (inactive) | 16.7 µM (inactive) | 14.9 µM | 5.56 µM (inactive) | 20.6 µM (inactive) |  | 15 µM (inactive) |  | 13.3 µM (inactive) | 17.6 µM (inactive) | 15.7 µM (inactive) | 15.7 µM (inactive) | 14.7 µM (inactive) | 15.6 µM (inactive) | 17.7 µM (inactive)
6 | Cc1ccc(Nc2cccc3c2C(=O)c2cccc(Nc4ccc(C)cc4S(=O)(=O)O)c2C3=O)c(S(=O)(=O)O)c1 | > 100 µM (inactive) | > 100 µM (inactive) | > 100 µM | > 100 µM (inactive) | > 100 µM (inactive) |  | > 100 µM (inactive) | > 100 µM (inactive) | > 100 µM (inactive) | > 100 µM (inactive) | > 100 µM (inactive) | > 100 µM (inactive) | > 100 µM (inactive) | > 100 µM (inactive) | > 100 µM (inactive)
7 | Brc1ccc2c(C3CN[C@@H](c4c[nH]c5cc(Br)ccc45)CN3)c[nH]c2c1 (stereo not given in full) | 8.97 µM (inactive) | 1.69 µM (inactive) | 3.61 µM | 2.42 µM (inactive) | 1.65 µM (inactive) | 2.61 µM (inactive) | 2.55 µM (inactive) | 1.3 µM (inactive) | 2.54 µM (inactive) | 1.89 µM (inactive) | 11.3 µM (inactive) | 6.14 µM (inactive) | 5.25 µM (inactive) | 2.48 µM (inactive) | 2 µM (inactive)
8 | c1ccc(C2OC3(CCC[C@H]4C[C@H]43)O[C@H]2c2ccccc2)cc1 (stereo not given in full) | 32.8 µM (inactive) | 31.8 µM (inactive) | 33.8 µM | 19.8 µM (inactive) | 22.7 µM (inactive) | 24.2 µM (inactive) | 43.9 µM (inactive) | 39.8 µM (inactive) | 22.7 µM (inactive) | 40.3 µM (inactive) |  | > 100 µM (inactive) | 34.4 µM (inactive) | 31.2 µM (inactive) | 39.9 µM (inactive)
9 | CC1C=CC(O)[C@]2(CO)CC3(CCC12)OCCO3 (stereo not given in full) | > 100 µM (inactive) | > 100 µM (inactive) |  | > 100 µM (inactive) | > 100 µM (inactive) |  | > 100 µM (inactive) | > 100 µM (inactive) | > 100 µM (inactive) |  | > 100 µM (inactive) | > 100 µM (inactive) | > 100 µM (inactive) | > 100 µM (inactive) | > 100 µM (inactive)
10 | O=C(CC(=O)c1ccccc1)c1ccccc1.O=C(CC(=O)c1ccccc1)c1ccccc1.O=C(CC(=O)c1ccccc1)c1ccccc1.[SiH4] | 6.65 µM (inactive) | 5.02 µM (inactive) |  | 1.92 µM (inactive) | 3.88 µM (inactive) | 3.1 µM (inactive) | 6.24 µM (inactive) |  | 2.26 µM (inactive) | 4.03 µM (inactive) | 7.76 µM (inactive) | 5.79 µM (inactive) | 3.95 µM (inactive) | 4.15 µM (inactive) | 3.6 µM (inactive)
